Values quoted from earlier work as cited in US20140004171A1, “TREATMENT OF ENDOMETRIOSIS BY INTRAVAGINAL ADMINISTRATION OF A LOW DOSE OF A SELECTIVE PROGESTERONE RECEPTOR MODULATOR (SPRM), ANTI-PROGESTIN, OR ANTI-PROGESTATIONAL AGENT” (ARSTAT Inc., priority 2011, published 2014).

Legend:
liver enzymes = conditions: oral
[1] = test system: endometrial lining of the uterus; conditions: oral
women with endometriosis [2] = conditions: oral, 100 mg daily for three months
women with endometriosis [3] = conditions: oral, 50 mg daily for 6 months, nine women
women with endometriosis [4] = conditions: oral, 5 mg daily for 6 months, seven women
[5] = test system: uterine and fibroid volumes

COCC(=O)[C@@]1(OC(C)=O)CC[C@H]2[C@@H]3CCC4=CC(=O)CCC4=C3[C@@H](c3ccc(N(C)C)cc3)C[C@@]21C [CDB-4124]
Safety finding that suspended Phase III studies (liver enzymes): significant increases in liver enzymes

COC[C@]1(OC)CC[C@H]2[C@@H]3CCC4=CC(=O)CCC4=C3[C@@H](c3ccc(/C=N/O)cc3)C[C@@]21C [asoprisnil]
Safety finding that terminated Phase III studies [1]: changes in the endometrial lining of the uterus

CC#C[C@]1(O)CC[C@H]2[C@@H]3CCC4=CC(=O)CCC4=C3[C@@H](c3ccc(N(C)C)cc3)C[C@@]21C [mifepristone]
Amenorrhea reported (women with endometriosis [2]; six normally cycling women with endometriosis): all study participants | Change in the extent of endometriosis (follow-up laparoscopy) (women with endometriosis [2]; six women): no significant change | Improvement in pelvic pain (women with endometriosis [2]; six women): all women | Amenorrhea without hypoestrogenism (women with endometriosis [3]): All patients | Pelvic pain and uterine cramping improved (women with endometriosis [3]): all patients | Regression of endometriosis (laparoscopic assessment of endometrial implants, AFS score) (women with endometriosis [3]): 55% | Cyclic bleeding ceased (women with endometriosis [4]): all patients | Decrease of mean endometriosis scores (women with endometriosis [4]): 20% | Pelvic pain improved (women with endometriosis [4]): six of seven | Oral dose effective in the reduction of uterine and fibroid volumes and related symptoms [5]: ≥ 10 mg/day | Incidence of amenorrhea ([5]; oral, 2.5 mg/day): lower incidence of amenorrhea | Reduction of uterine volume ([5]; oral, 2.5 mg/day): appreciably smaller reduction of uterine volume | Ability to reduce uterine volume and eliminate some fibroid-related symptoms ([5]; oral, 5 mg/day): limited | Incidence of side effects (endometrial hyperplasia, hot flashes, elevated liver enzymes) ([5]; oral, 10 mg/day or higher): greater than desired
